{"source": "patent US20190151312A1", "about": "“HEPARAN SULFATE BIOSYNTHESIS INHIBITORS FOR THE TREATMENT OF DISEASES” (BioMarin Pharmaceutical Inc., priority 2014, published 2019)"}
{"system": "GM01896 cells (MPS II dermal fibroblasts)", "assay": "Assay 1: MPS cellular assay, MPS II (heparan sulfate disaccharide biomarkers by LC-MS)", "type": "cell-based, human", "conditions": "Homo sapiens, Fibroblast, Assay 1 for MPS II, heparan sulfate disaccharide biomarkers (I2a4, I2a6, I2S0 and/or I2S6), read-out: IC50 Range", "how_it_was_run": "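Heparan sulfate disaccharide biomarkers quantified by LC-MS after heparinase I/II/III digestion and isotopic aniline labelling, using GM01896 MPS II fibroblasts exposed to compound (at or below 30 μM, 4-21 days). Values given as IC50 by curve fitting; cell viability checked with alamar blue or ATP.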", "units": {"IC50": "µM"}}
{"smiles": "Cc1nc2ccc(-c3cc(Nc4ccc(Cl)cc4)nc(N4CCOCC4)n3)cc2n1CCCN1CCOCC1", "note": "[(4-chlorophenyl){6-[2-methyl-1-(3-morpholin-4-ylpropyl)benzimidazol-6-yl]-2-morpholin-4-ylpyrimidin-4-yl}amine]", "IC50": "1 to 5"}
{"smiles": "Cc1nc2ccc(-c3cc(Nc4ccc(Cl)cc4)nc(N4CCOCC4)n3)cc2n1CCCN1CCCC1", "note": "[(4-chlorophenyl){6-[2-methyl-1-(3-pyrrolidinylpropyl)benzimidazol-6-yl]-2-morpholin-4-ylpyrimidin-4-yl}amine]", "IC50": "0.5 to 1"}
{"smiles": "Cc1nn(CCN2CCOCC2)c2cc(-c3cc(Nc4ccc(Cl)cc4)nc(N4CCOCC4)n3)ccc12", "note": "[(4-chlorophenyl){6-[3-methyl-1-(2-morpholin-4-ylethyl)(1H-indazol-6-yl)]-2-morpholin-4-ylpyrimidin-4-yl}amine]", "IC50": "0.5 to 1"}
{"smiles": "Cc1nn(CCN2CCCC2)c2cc(-c3cc(Nc4ccc(Cl)cc4)nc(N4CCOCC4)n3)ccc12", "note": "[(4-chlorophenyl){6-[3-methyl-1-(2-pyrrolidinylethyl)(1H-indazol-6-yl)]-2-morpholin-4-ylpyrimidin-4-yl}amine]", "IC50": "1 to 5"}
{"smiles": "Cc1nn(CCCN2CCOCC2)c2cc(-c3cc(Nc4ccc(Cl)cc4)nc(N4CCOCC4)n3)ccc12", "note": "[(4-chlorophenyl){6-[3-methyl-1-(3-morpholin-4-ylpropyl)(1H-indazol-6-yl)]-2-morpholin-4-ylpyrimidin-4-yl}amine]", "IC50": "1 to 5"}
{"smiles": "Cc1nn(CCCN2CCCC2)c2cc(-c3cc(Nc4ccc(Cl)cc4)nc(N4CCOCC4)n3)ccc12", "note": "[(4-chlorophenyl){6-[3-methyl-1-(3-pyrrolidinylpropyl)(1H-indazol-6-yl)]-2-morpholin-4-ylpyrimidin-4-yl}amine]", "IC50": "0.5 to 1"}
{"smiles": "Cn1nc(CCN2CCOCC2)c2cc(F)c(-c3cc(Nc4ccc(Cl)cc4)nc(N4CCOCC4)n3)cc21", "note": "[(4-chlorophenyl){6-[5-fluoro-1-methyl-3-(2-morpholin-4-ylethyl)(1H-indazol-6-yl)]-2-morpholin-4-ylpyrimidin-4-yl}amine]", "IC50": "0.5 to 1"}
{"smiles": "Cn1cnc2ccc(-c3cc(Nc4ccc(F)cc4)nc(N4CCOCC4)n3)cc21", "note": "[(4-fluorophenyl)[6-(1-methylbenzimidazol-6-yl)-2-morpholin-4-ylpyrimidin-4-yl]amine]", "IC50": "1 to 5"}
{"smiles": "Cn1nc(CCN2CCOCC2)c2ccc(-c3cc(Nc4ccc(F)cc4)nc(N4CCOCC4)n3)cc21", "note": "[(4-fluorophenyl){6-[1-methyl-3-(2-morpholin-4-ylethyl)(1H-indazol-6-yl)]-2-morpholin-4-ylpyrimidin-4-yl}amine]", "IC50": "1 to 5"}
{"smiles": "Cn1ncc2ccc(-c3cc(Nc4ccc(-c5ncc[nH]5)cc4)nc(N4CCOCC4)n3)cc21", "note": "[(4-imidazol-2-ylphenyl)[6-(1-methyl(1H-indazol-6-yl))-2-morpholin-4-ylpyrimidin-4-yl]amine]", "IC50": "< 0.5"}
{"smiles": "Cn1nc(CCN2CCOCC2)c2ccc(-c3cc(Nc4ccc(-c5ncc[nH]5)cc4)nc(N4CCOCC4)n3)cc21", "note": "[(4-imidazol-2-ylphenyl){6-[1-methyl-3-(2-morpholin-4-ylethyl)(1H-indazol-6-yl)]-2-morpholin-4-ylpyrimidin-4-yl}amine]", "IC50": "1 to 5"}
{"smiles": "Cn1ncc2ccc(-c3cc(Nc4ccc(-c5c[nH]cn5)cc4)nc(N4CCOCC4)n3)cc21", "note": "[(4-imidazol-4-ylphenyl)[6-(1-methyl(1H-indazol-6-yl))-2-morpholin-4-ylpyrimidin-4-yl]amine]", "IC50": "0.5 to 1"}
{"smiles": "Cn1nc(CCN2CCOCC2)c2ccc(-c3cc(Nc4ccc(-c5c[nH]cn5)cc4)nc(N4CCOCC4)n3)cc21", "note": "[(4-imidazol-4-ylphenyl){6-[1-methyl-3-(2-morpholin-4-ylethyl)(1H-indazol-6-yl)]-2-morpholin-4-ylpyrimidin-4-yl}amine]", "IC50": "1 to 5"}
{"smiles": "COc1ccc(Nc2cc(-c3ccc4cnn(C)c4c3)nc(N3CCOCC3)n2)cc1", "note": "[(4-methoxyphenyl)[6-(1-methyl(1H-indazol-6-yl))-2-morpholin-4-ylpyrimidin-4-yl]amine]", "IC50": "1 to 5"}
{"smiles": "COc1ccc(Nc2cc(-c3ccc4ncn(C)c4c3)nc(N3CCOCC3)n2)cc1", "note": "[(4-methoxyphenyl)[6-(1-methylbenzimidazol-6-yl)-2-morpholin-4-ylpyrimidin-4-yl]amine]", "IC50": "1 to 5"}
{"smiles": "CNC(=O)c1ccc(Nc2cc(-c3ccc4nc(C)n(C)c4c3)nc(N3CCOCC3)n2)cc1", "note": "[(4-{[6-(1,2-dimethylbenzimidazol-6-yl)-2-morpholin-4-ylpyrimidin-4-yl]amino}phenyl)-N-methylcarboxamide]", "IC50": "< 0.5"}
{"smiles": "CNC(=O)c1ccc(Nc2cc(-c3ccc4c(C)nn(C)c4c3)nc(N3CCOCC3)n2)cc1", "note": "[(4-{[6-(1,3-dimethyl(1H-indazol-6-yl))-2-morpholin-4-ylpyrimidin-4-yl]amino}phenyl)-N-methylcarboxamide]", "IC50": "< 0.5"}
{"smiles": "CNC(=O)c1ccc(Nc2cc(-c3ccc4cnn(C5CCC5)c4c3)nc(N3CCOCC3)n2)cc1", "note": "[(4-{[6-(1-cyclobutyl(1H-indazol-6-yl))-2-morpholin-4-ylpyrimidin-4-yl]amino}phenyl)-N-methylcarboxamide]", "IC50": "< 0.5"}
{"smiles": "CNC(=O)c1ccc(Nc2cc(-c3ccc4nc(C)n(C5CCC5)c4c3)nc(N3CCOCC3)n2)cc1", "note": "[(4-{[6-(1-cyclobutyl-2-methylbenzimidazol-6-yl)-2-morpholin-4-ylpyrimidin-4-yl]amino}phenyl)-N-methylcarboxamide]", "IC50": "< 0.5"}
{"smiles": "CNC(=O)c1ccc(Nc2cc(-c3ccc4ncn(C5CCC5)c4c3)nc(N3CCOCC3)n2)cc1", "note": "[(4-{[6-(1-cyclobutylbenzimidazol-6-yl)-2-morpholin-4-ylpyrimidin-4-yl]amino}phenyl)-N-methylcarboxamide]", "IC50": "< 0.5"}
{"smiles": "CNC(=O)c1ccc(Nc2cc(-c3ccc4c(cnn4C4CC4)c3)nc(N3CCOCC3)n2)cc1", "note": "[(4-{[6-(1-cyclopropyl(1H-indazol-5-yl))-2-morpholin-4-ylpyrimidin-4-yl]amino}phenyl)-N-methylcarboxamide]", "IC50": "1 to 5"}
{"smiles": "CNC(=O)c1ccc(Nc2cc(-c3ccc4cnn(C5CC5)c4c3)nc(N3CCOCC3)n2)cc1", "note": "[(4-{[6-(1-cyclopropyl(1H-indazol-6-yl))-2-morpholin-4-ylpyrimidin-4-yl]amino}phenyl)-N-methylcarboxamide]", "IC50": "< 0.5"}
{"smiles": "CNC(=O)c1ccc(Nc2cc(-c3ccc4nc(C)n(C5CC5)c4c3)nc(N3CCOCC3)n2)cc1", "note": "[(4-{[6-(1-cyclopropyl-2-methylbenzimidazol-6-yl)-2-morpholin-4-ylpyrimidin-4-yl]amino}phenyl)-N-methylcarboxamide]", "IC50": "< 0.5"}
{"smiles": "CNC(=O)c1ccc(Nc2cc(-c3ccc4c(c3)ncn4C3CC3)nc(N3CCOCC3)n2)cc1", "note": "[(4-{[6-(1-cyclopropylbenzimidazol-5-yl)-2-morpholin-4-ylpyrimidin-4-yl]amino}phenyl)-N-methylcarboxamide]", "IC50": "0.5 to 1"}
{"smiles": "CNC(=O)c1ccc(Nc2cc(-c3ccc4ncn(C5CC5)c4c3)nc(N3CCOCC3)n2)cc1", "note": "[(4-{[6-(1-cyclopropylbenzimidazol-6-yl)-2-morpholin-4-ylpyrimidin-4-yl]amino}phenyl)-N-methylcarboxamide]", "IC50": "< 0.5"}
{"smiles": "Cn1ncc2ccc(-c3cc(Nc4ccc(NS(C)(=O)=O)cc4)nc(N4CCOCC4)n3)cc21", "note": "[(4-{[6-(1-methyl(1H-indazol-6-yl))-2-morpholin-4-ylpyrimidin-4-yl]amino}phenyl)(methylsulfonyl)amine]", "IC50": "0.5 to 1"}
